Values joined by “and” are separate entries in the source; they are usually repeats but may differ in a detail not shown here. Identical values can stand only once. Toxic doses and inconclusive results are not listed.

Results on 23 compounds are retold here after PubChem BioAssay AID330 (DTP/NCI, 2004).

The test system of this assay is P388 leukemia ip, CD2F1 mice, survival T/C. Kind of assay: NCI In Vivo Anticancer Drug Screen. Data for tumor model P388 Leukemia (intraperitoneal) in CD2F1 (CDF1) mice. Particulars: endpoint: median survival time, higher = longer survival. Summed up: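 Mice carrying the transplanted tumor received test compound or vehicle. Survival was recorded in each group, and the value is the treated-group measurement divided by that of the vehicle-treated control group.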

Setting [1] is: dose: 50.0 mg/kg/injection, schedule: Q01DX009 (ip), vehicle: saline.
The mark [2] stands for this setting: dose: 100.0 mg/kg/injection, schedule: Q01DX009 (ip), vehicle: saline.
Where [3] appears, read: dose: 200.0 mg/kg/injection, schedule: Q01DX009 (ip), vehicle: saline.
Where [4] appears, read: dose: 50.0 mg/kg/injection, schedule: Q01DX005 (ip), vehicle: saline with Tween-80.
Setting [5] is: dose: 100.0 mg/kg/injection, schedule: Q01DX005 (ip), vehicle: saline with Tween-80.
The mark [6] stands for this setting: dose: 50.0 mg/kg/injection, schedule: Q01DX005 (ip), vehicle: Klucel (hydroxypropylcellulose) (HPC).
Setting [7] is: dose: 100.0 mg/kg/injection, schedule: Q01DX005 (ip), vehicle: Klucel (hydroxypropylcellulose) (HPC).
The mark [8] stands for this setting: dose: 200.0 mg/kg/injection, schedule: Q01DX005 (ip), vehicle: Klucel (hydroxypropylcellulose) (HPC).
[9] abbreviates: dose: 50.0 mg/kg/injection, schedule: Q01DX009 (ip), vehicle: Klucel (hydroxypropylcellulose) (HPC).
[10] abbreviates: dose: 100.0 mg/kg/injection, schedule: Q01DX009 (ip), vehicle: Klucel (hydroxypropylcellulose) (HPC).
The mark [11] stands for this setting: dose: 200.0 mg/kg/injection, schedule: Q01DX009 (ip), vehicle: Klucel (hydroxypropylcellulose) (HPC).
Setting [12] is: dose: 50.0 mg/kg/injection, schedule: Q01DX009 (ip), vehicle: saline with Tween-80.
Where [13] appears, read: dose: 100.0 mg/kg/injection, schedule: Q01DX009 (ip), vehicle: saline with Tween-80.
[14] abbreviates: dose: 200.0 mg/kg/injection, schedule: Q01DX009 (ip), vehicle: saline with Tween-80.

Consider `CCC(=O)NC(CC(=O)O)c1cccs1` (stereo not given), for which the T/C runs as follows: (dose: 12.5 mg/kg/injection, schedule: Q01DX009 (ip), vehicle: saline) 102 % of control; (dose: 25.0 mg/kg/injection, schedule: Q01DX009 (ip), vehicle: saline) 104 % of control; under setting [1], 107 % of control; under setting [2], 90 % of control; under setting [3], 93 % of control.
As to `CCOC(=O)c1csc(CCNC(=O)c2ccccc2)n1`, the T/C was 103 % of control (dose: 12.5 mg/kg/injection, schedule: Q01DX009 (ip), vehicle: other); 102 % of control (dose: 25.0 mg/kg/injection, schedule: Q01DX009 (ip), vehicle: other); 94 % of control (dose: 50.0 mg/kg/injection, schedule: Q01DX009 (ip), vehicle: other); 94 % of control (dose: 100.0 mg/kg/injection, schedule: Q01DX009 (ip), vehicle: other); 89 % of control (dose: 200.0 mg/kg/injection, schedule: Q01DX009 (ip), vehicle: other).
As to `CC(=O)O.CC(=O)O.[S-]CCN1CCOCC1.[Zn+2]`, the T/C is, setting by setting: (dose: 12.5 mg/kg/injection, schedule: Q01DX009 (ip), vehicle: Klucel (hydroxypropylcellulose) (HPC)) 100 % of control; (dose: 25.0 mg/kg/injection, schedule: Q01DX009 (ip), vehicle: Klucel (hydroxypropylcellulose) (HPC)) 102 % of control.
On to `CCCCCCCCC(O)C#CC(O)CCCCCCCC` (stereo not given), for which the T/C by setting is: (dose: 12.5 mg/kg/injection, schedule: Q01DX005 (ip), vehicle: saline with Tween-80) 92 % of control; (dose: 25.0 mg/kg/injection, schedule: Q01DX005 (ip), vehicle: saline with Tween-80) 90 % of control; under setting [4], 101 % of control and 91 % of control; under setting [5], 100 % of control.
Turning to `C=C(N=NNc1ccccc1)c1ccccc1`, the T/C reads like this: under setting [6], 97 % of control; under setting [7], 101 % of control; under setting [8], 93 % of control.
Regarding `CC(=O)OCCn1c2ccccc2nc2cc3c(cc21)c(Cl)c(=O)c1ccccc13`, the T/C was 96 % of control (dose: 50.0 mg/kg/injection, schedule: Q04DX003 (ip), vehicle: saline with Tween-80); 100 % of control (dose: 100.0 mg/kg/injection, schedule: Q04DX003 (ip), vehicle: saline with Tween-80); 100 % of control (dose: 200.0 mg/kg/injection, schedule: Q04DX003 (ip), vehicle: saline with Tween-80).
As for `CCOP(=O)(OCC)C(C)OC` (stereo not given), the T/C was 100 % of control under setting [1]; 100 % of control under setting [2]; 106 % of control under setting [3]; 100 % of control (dose: 400.0 mg/kg/injection, schedule: Q01DX009 (ip), vehicle: saline).
On to `CCN(CC)CCNC1CC(C)CC(C)(C)C1` (stereo not given), for which the T/C by setting is: under setting [4], 103 % of control; under setting [5], 101 % of control.
Turning to `O=[N+]([O-])c1cnc2n(O)cccc1-2`, the T/C was 90 % of control (dose: 100.0 mg/kg/injection, schedule: Q01DX001 (ip), vehicle: saline with Tween-80) and 87 % of control (dose: 200.0 mg/kg/injection, schedule: Q01DX001 (ip), vehicle: saline with Tween-80).
Turning to `C/C(CC/C(C)=N/N=C(\N)c1ccccn1)=N\N=C(/N)c1ccccn1`, the T/C under setting [9] is 99 % of control, the T/C under setting [10] was 98 % of control and the T/C under setting [11] was 99 % of control.
`CC1=C/C(=C(\c2ccccc2)c2cc(C)c(O)c(CNCC(=O)O)c2)C=C(CNCC(=O)O)C1=O`: the T/C (dose: 60.0 mg/kg/injection, schedule: Q01DX005 (ip), vehicle: saline) is 95 % of control; the T/C (dose: 120.0 mg/kg/injection, schedule: Q01DX005 (ip), vehicle: saline) is 103 % of control; the T/C (dose: 240.0 mg/kg/injection, schedule: Q01DX005 (ip), vehicle: saline) was 108 % of control.
As to `CC(=O)O[C@H]1[C@@H](OC(C)=O)[C@]2(C)[C@H](CC[C@@]3(C)[C@H](c4ccoc4)C[C@H]4O[C@@]423)[C@@]2(C)C=CC(=O)OC(C)(C)[C@H]12`, the T/C (dose: 1.25 mg/kg/injection, schedule: Q04DX003 (ip), vehicle: Klucel (hydroxypropylcellulose) (HPC)) is 94 % of control; the T/C (dose: 2.5 mg/kg/injection, schedule: Q04DX003 (ip), vehicle: Klucel (hydroxypropylcellulose) (HPC)) was 88 % of control; the T/C (dose: 5.0 mg/kg/injection, schedule: Q04DX003 (ip), vehicle: Klucel (hydroxypropylcellulose) (HPC)) is 93 % of control; the T/C (dose: 10.0 mg/kg/injection, schedule: Q04DX003 (ip), vehicle: Klucel (hydroxypropylcellulose) (HPC)) was 88 % of control.
`COc1ccc(S(=O)(=O)N/N=C/c2ccccn2)cc1OC`: the T/C runs as follows: under setting [6], 99 % of control; under setting [7], 96 % of control; under setting [8], 98 % of control.
On to `O=[N+]([O-])c1cccc2ccc(N/N=C/c3ccccc3O)nc12`, for which the T/C by setting is: under setting [9], 94 % of control; under setting [12], 86 % of control; under setting [10], 87 % of control and 91 % of control; under setting [13], 93 % of control; under setting [14], 88 % of control; (dose: 400.0 mg/kg/injection, schedule: Q01DX009 (ip), vehicle: saline with Tween-80) 89 % of control.
With `CCOc1ccc2[nH]c(=S)sc2c1`, the T/C is, setting by setting: under setting [9], 100 % of control; under setting [10], 100 % of control; under setting [11], 101 % of control.
`Nc1nc(N)c2cc(S(=O)(=O)c3ccc(Cl)cc3)ccc2n1`: the T/C by setting is: under setting [12], 100 % of control; under setting [13], 98 % of control; under setting [14], 97 % of control.
Take `Nc1c(C(=O)NCCc2ccccc2)c2nc3c(C(=O)NCCc4ccccc4)cccc3oc-2cc1=O`: the T/C is, setting by setting: under setting [4], 96 % of control; under setting [5], 89 % of control; (dose: 200.0 mg/kg/injection, schedule: Q01DX005 (ip), vehicle: saline with Tween-80) 105 % of control.
As to `CCn1c(O)c(N=NC(=S)c2ccc3ccccc3n2)c2ccccc21`, the T/C under setting [1] is 104 % of control, the T/C under setting [2] was 96 % of control and the T/C under setting [3] is 86 % of control.
For `O=C1NC(=O)N(CCO)C(=O)C1c1ccccc1` (stereo not given), the T/C is, setting by setting: under setting [9], 101 % of control; under setting [10], 101 % of control; under setting [11], 94 % of control.
For the compound `Cc1c2ccncc2c(CN2C(=O)c3ccccc3C2=O)c2c3ccccc3n(C)c12`, the T/C by setting is: (dose: 12.5 mg/kg/injection, schedule: Q04DX002 (ip), vehicle: saline with Tween-80) 102 % of control; (dose: 25.0 mg/kg/injection, schedule: Q04DX002 (ip), vehicle: saline with Tween-80) 100 % of control; (dose: 50.0 mg/kg/injection, schedule: Q04DX002 (ip), vehicle: saline with Tween-80) 98 % of control; (dose: 100.0 mg/kg/injection, schedule: Q04DX002 (ip), vehicle: saline with Tween-80) 95 % of control.
With `Nc1nc(N)c2nc(CNc3ccc(C(=O)NC(CCC(=O)O)C(=O)O)cc3F)cnc2n1` (stereo not given), the T/C is, setting by setting: (dose: 1.87 mg/kg/injection, schedule: Q01DX005 (ip), vehicle: saline with Tween-80) 163 % of control; (dose: 7.5 mg/kg/injection, schedule: Q01DX005 (ip), vehicle: saline with Tween-80) 183 % of control.
On to `COc1ccc(/C=N\NC(=O)CNC(=O)Nc2cccc([N+](=O)[O-])c2)cc1O`, for which the T/C was 107 % of control (dose: 15.0 mg/kg/injection, schedule: Q01DX005 (ip), vehicle: saline with Tween-80); 93 % of control (dose: 30.0 mg/kg/injection, schedule: Q01DX005 (ip), vehicle: saline with Tween-80); 89 % of control (dose: 60.0 mg/kg/injection, schedule: Q01DX005 (ip), vehicle: saline with Tween-80); 91 % of control and 93 % of control (dose: 240.0 mg/kg/injection, schedule: Q01DX005 (ip), vehicle: saline with Tween-80).
`CCC(C)N(CCCOC(=O)c1ccc(N)cc1)C(C)CC` (stereo not given): the T/C (dose: 12.5 mg/kg/injection, schedule: Q01DX009 (ip), vehicle: saline with Tween-80) is 109 % of control; the T/C (dose: 12.5 mg/kg/injection, schedule: Q04DX003 (ip), vehicle: saline) was 100 % of control; the T/C (dose: 25.0 mg/kg/injection, schedule: Q01DX009 (ip), vehicle: saline with Tween-80) was 100 % of control; the T/C (dose: 25.0 mg/kg/injection, schedule: Q04DX003 (ip), vehicle: saline) was 91 % of control; the T/C under setting [12] was 104 % of control; the T/C (dose: 50.0 mg/kg/injection, schedule: Q04DX003 (ip), vehicle: saline) was 91 % of control.
